According to patent US20040229772A1, “Peptides responsive to antibodies against consensus peptide of the CS4-CFA/I family proteins” (priority 1996, published 2004):

Assays:
Type in all cases: binding
[1] = test system: antibodies raised to the consensus peptide; test: ELISA of 8-mer peptides with rabbit antibodies; conditions: for interaction of peptides with the antibodies raised to the consensus peptide: rabbit antibodies raised to consensus peptide SEQ ID NO:1; for reactivity of 8-mer peptides with antibodies from the rabbits: rabbit antibodies raised to consensus peptide SEQ ID NO:1, biotin-SGSG-peptide on streptavidin
Method: (§1) Blocks of pins for cleavable syntheses were obtained from Chiron Mimotopes U.S. Peptide synthesis was carried out according to the manufacturer's instructions using Opfp-derivatized amino acids. Peptides of length 8 with 7 overlap were manufactured in order to locate all linear epitopes in the sequence with a highest redundancy. […] Peptides were cleaved from the pins using 0.1 M phosphate buffer, pH 8.0, containing 40% acetonitrile. Two peptides were made and sacrificed for amino acid analysis as proof of peptide purity. A dinitrophenol (DNP) pin was included so that the efficiency of the cleavage could be monitored spectrophotometrically.
(§2) For blocking, a composition containing 5% nonfat dry milk in PBS+0.2% sodium azide was used. Stock streptavidin (Calbiochem Corp., La Jolla, Calif.) at 1 mg/ml in water was kept frozen in aliquots for up to several months. On the day of use, the stock streptavidin was diluted in phosphate buffered saline (PBS) to provide a concentration of 5 μg/ml streptavidin. Goat F(ab′)2 anti-mouse, anti-rabbit and anti-human sera were labeled with alkaline phosphatase (Biosource, International, Camarillo, Calif.).
(§3) Streptavidin was plated at 5 μg/ml, 50 μl per well, and incubated over night at 4° C. Plates were then washed by hand (Nunc Immunowash 12 hand plate washer. Fisher Scientific, Pittsburgh, Pa.) three times with PBS/0.1% TWEEN 20™. Peptides were then diluted to 10 μg/ml in PBS and plated at 50-μl/well. After incubation for one hour at room temperature followed by washing, the peptides were incubated with sera diluted in blocker at appropriate concentrations (5% nonfat dry milk) for 2 hours at room temperature. After washing the wells, 50 μl of phosphatase-labeled anti-serum IgG diluted 1:1000 in blocker was added to each well and was allowed to incubate at room temperature for 1 hour. The plates were washed. The 100 μl of PNDP (p-nitrophenylphosphate) substrate, prepared according to the manufacturer's instructions, was added to each well. Results were read at 5, 15 and 60 minutes using a microtiter plate reader (UVmax™, Moelcular Devices, Sunnyvale, Calif.).
Antibodies from the rabbits were then tested against the specific 8-mer peptides obtained from SEQ ID NO:1 in the manner disclosed above to determine the binding sites of the antibodies in the sera with the consensus peptide.

Antibody to 0166 upper = test: ELISA of 8-mer peptides (pins) with rabbit serum
Method: as §1, §2, §3
(§4) Partially to fully purified colonization factor (40% to 100% pure) was run on SDS-PAGE gel (5-15 μg/lane of 10 comb gel (precast 10 comb, 1 mm thickness, Tris-tricene gel from Novex, San Diego, Calif.), for primary immunization run 9 lanes for each rabbit (45-135 μg CF protein with ½ the amount used in the primary immunization used as a booster). The gel was stained with 0.5% COOMASSIE BLUE™ (BioRad, Richmond, Calif.) in water for 1 hour, then destained with multiple changes of water for 60-90 minutes. The colonization factor bands were excised with a scalpel and the excess gel trimmed. The bands were stored at −20° C. until use.
(§5) After removal from freezer, the gel slices were transferred to a glass tissue homogenizer using a teflon pestle with grooves at the tip. The slices were ground with 0.3 ml phosphate buffered saline (PBS). The drill was run to homogenize the gel for 30 to 45 seconds. (In the instant case, a pestle with a shaft of steel was used which allowed placement of the pestle into the chuck of the hand-held drill.)
(§6) The homogenate was transferred to 16 mm×150 mm test tubes with disposable plastic transfer pipet. The pestle and homogenizer vessel was rinsed repeatedly with PBS and the contents transferred to the 16×150 test tube until a volume of 1.2 ml was obtained.
(§7) The sample obtained above was placed in a vortex mixer and vortexed on high. Freund's adjuvant 1.2 ml was added. (Complete Freund's was used for the primary immunization, while incomplete Freund's was used for the boost.) The composition was vortexed until a thick emulsion of almost a butter consistency was obtained (12-20 minutes).
(§8) A preimmune serum was obtained on all animals, which were then immunized with the 1 ml of the emulsion subcutaneously at 4-6 spots on the shoulders and rump. The animals were boosted three weeks later, then bleed 10 days after the booster shots. […]

Antibody to CS1 = test: ELISA of 8-mer peptides (pins) with rabbit serum; conditions: a listed pin number means recognized
Method: as §1, §2, §3, §4, §5, §6, §7, §8

Antibody to CS2 = test: ELISA of 8-mer peptides (pins) with rabbit serum; conditions: a listed pin number means recognized
Method: as §1, §2, §3, §4, §5, §6, §7, §8

Antibody to CS4 = test: ELISA of 8-mer peptides (pins) with rabbit serum; conditions: a listed pin number means recognized
Method: as §1, §2, §3, §4, §5, §6, §7, §8

Antibody to 0166 lower = test: ELISA of 8-mer peptides (pins) with rabbit serum
Method: as §1, §2, §3, §4, §5, §6, §7, §8

Antibody to CS17 = test: ELISA of 8-mer peptides (pins) with rabbit serum; conditions: a listed pin number means recognized
Method: as §1, §2, §3, §4, §5, §6, §7, §8

Antibody to CFA/I = test: ELISA of 8-mer peptides (pins) with rabbit serum
Method: as §1, §2, §3, §4, §5, §6, §7, §8

[2] = rabbit 1081, a listed pin number means recognized
[3] = rabbit 1082, a listed pin number means recognized
[4] = rabbit 934, a listed pin number means recognized
[5] = rabbit 1083, a listed pin number means recognized
[6] = rabbit 1078, a listed pin number means recognized
[7] = rabbit 1079, a listed pin number means recognized

Sequence | interaction of peptides with the antibodies raised to the consensus peptide [1] | reactivity of 8-mer peptides with antibodies from the rabbits [1] | pins (8-aa peptide) recognized by serum (Antibody to 0166 upper; [2]) | pins (8-aa peptide) recognized by serum (Antibody to CS1; Antibody to CS1, rabbit 1090) | pins (8-aa peptide) recognized by serum (Antibody to CS2; Antibody to CS2, rabbit 1076) | pins (8-aa peptide) recognized by serum (Antibody to CS2; Antibody to CS2, rabbit 1077) | pins (8-aa peptide) recognized by serum (Antibody to CS4; Antibody to CS4, rabbit 938) | pins (8-aa peptide) recognized by serum (Antibody to 0166 lower; [3]) | pins (8-aa peptide) recognized by serum (Antibody to CS17; Antibody to CS17, rabbit 1084) | pins (8-aa peptide) recognized by serum (Antibody to 0166 upper; [4]) | pins (8-aa peptide) recognized by serum (Antibody to CS1; Antibody to CS1, rabbit 1089) | pins (8-aa peptide) recognized by serum (Antibody to CS4; Antibody to CS4, rabbit 940) | pins (8-aa peptide) recognized by serum (Antibody to 0166 lower; [5]) | pins (8-aa peptide) recognized by serum (Antibody to CS17; Antibody to CS17, rabbit 1080) | pins (8-aa peptide) recognized by serum (Antibody to CFA/I; [6]) | pins (8-aa peptide) recognized by serum (Antibody to CFA/I; [7])
ASVDPTID (listed as Escherichia coli) [compound 9] | more reliably interactive | most reactive | 9 | 9 | 9 | 9 | 9 | 9 | 9 | – | – | – | – | – | – | –
DPTIDLLQ (listed as Escherichia coli) [compound 12] | more reliably interactive | most reactive | 12 | 12 | 12 | – | 12 | 12 | – | 12 | 12 | 12 | 12 | – | – | –
EKNITVTA (listed as Escherichia coli) [compound 2] | – | most reactive | – | – | – | – | – | – | – | – | – | 2 | 2 | 2 | – | –
KNITVTAS (listed as Escherichia coli) [compound 3] | – | most reactive | – | – | – | – | – | – | – | – | 3 | 3 | 3 | 3 | – | –
NITVTASV (listed as Escherichia coli) [compound 4] | – | most reactive | – | 4 | – | – | – | – | – | – | 4 | – | – | 4 | – | –
PTIDLLQA (listed as Escherichia coli) [compound 13] | more reliably interactive | most reactive | 13 | 13 | – | – | 13 | 13 | – | 13 | 13 | 13 | 13 | – | 13 | 13
TASVDPTI (listed as Escherichia coli) [compound 8] | – | most reactive | – | 8 | 8 | 8 | 8 | – | 8 | – | – | – | – | – | – | –
TIDLLQAD (listed as Escherichia coli) [compound 14] | – | most reactive | – | – | – | – | – | 14 | – | 14 | – | 14 | – | – | 14 | 14
TVTASVDP (listed as Escherichia coli) [compound 6] | – | – | – | 6 | – | – | – | – | 6 | – | – | – | – | – | – | –
VDPTIDLL (listed as Escherichia coli) [compound 11] | more reliably interactive | most reactive | 11 | 11 | 11 | 11 | 11 | 11 | – | – | 11 | 11 | – | – | – | 11
VEKNITVT (listed as Escherichia coli) [compound 1] | – | – | – | – | – | – | – | – | 1 | – | – | 1 | – | – | – | –
VTASVDPT (listed as Escherichia coli) [compound 7] | – | – | – | 7 | 7 | 7 | – | – | 7 | – | – | – | – | – | – | –
